# Results: patent US10088484B2, “Isolated mucins and different microorganisms, and methods of use” (Massachusetts Institute of Technology, priority 2015, dated 2018)
# Legend:
# S. sanguinis [1] = assay: S. mutans / S. sanguinis competition model, S. sanguinis survival (Example 2); assay type: cell-based, Streptococcus sanguinis
# Text: The effect of MUC5B on S. mutans and S. sanguinis competition and coexistence was examined. To examine the effect of MUC5B, a model was developed to allow sufficient competition between S. mutans and S. sanguinis (FIG. 7). The two bacteria compete when one colonizes the surface and the second bacteria is introduced after some time.
# The presence of 0.3% mucins in control medium, BHI containing 1% sucrose (S Medium), enhances S. sanguinis survival when S. mutans is the primary colonizer (FIG. 8A). * statistically significant difference determined by Student's t test (p<0.05). […] When the ratios of bacteria are equal (FIG. 8C), there is less competition, and effect of MUC5B is small. When the ratio is slightly skewed (FIG. 8B), competition increases and the protective effect of MUC5B is visible. * statistically significant difference determined by Student's t test (p<0.05). The protective effect of MUC5B may increase as inter-species competition increases. […] MUC5B may play a role in establishing a healthy oral microbiome.
# (§1) In FIG. 9, the biofilm is grown, then the supernatant is removed and the biofilm washed with PBS. To remove adherent cells, the bottom of the wells are scraped with a sterile pipette tip. Suspended cells are diluted, plated on agar and […] until colonies are visible.
# S. mutans [2] = assay: S. mutans attachment and biofilm formation on glass (Example 2); assay type: cell-based, Streptococcus mutans; settings: 0.3% polymer in BHI with 1% sucrose, compared to BHI with 1% sucrose
# Description: as §1
# As shown in FIG. 10A and FIG. 10B and FIG. 11A and FIG. 11B, salivary mucins decrease S. mutans attachment and biofilm formation. […] Error bars represent SDs. […] Scale Bars 20 μm.
# S. mutans [3] = assay: S. mutans growth curve and viable cell count (Example 2); assay type: cell-based, Streptococcus mutans; settings: 0.3% polymer in BHI with 1% sucrose
# Text: As shown in FIG. 12 and FIG. 13, S. mutans survival is unaffected by salivary mucins. […] Error bars represent SDs. […] Error bars represent SDs.
# S. mutans [4] = assay: CFU count assay, biofilm formation and total cells, single-species model, S. mutans; assay type: cell-based, Streptococcus mutans UA159; settings: for reduction of S. mutans biofilm formation: 0.4% polymer
# Description: (§2) For all experiments, S. mutans (bacterial strain Streptococcus mutans UA159) and S. sanguinis (erythromycin-resistant Streptococcus sanguinis JFP36) were grown overnight in Brain Heart Infusion (BHI) medium (Becton, Dickinson and Company). Before inoculating an experiment the cells were pelleted, washed with half-strength BHI containing 1% (wt/vol) sucrose (Sigma-Aldrich Company), then resuspended in half-strength BHI containing 1% sucrose. Acid-washed glass beads (425-600 μm, Sigma-Aldrich Company) were added to the resuspended bacteria to break up bacterial aggregates then the culture was vortexed for ten pulses of two seconds each. […] All experiments were performed in chambered glass slides at 37° C. with 5% CO2.
# (§3) Equal numbers of CFU were inoculated into chambered glass slides then incubated. After a given amount of time, the supernatant was used to gently wash the biofilm to resuspend unattached cells, then the supernatant was removed. PBS was added to the wells then the biofilm was scraped using a sterile pipette tip. The supernatant and biofilm were vortexed with glass beads to individualize cells then the suspension was diluted, plated on BHI agar and incubated for 24-36 hours. […] Statistically significant differences were determined using the Student's t test, with P<0.05 considered significant.
# (§4) The effect of MUC5B on S. sanguinis and S. mutans biofilm formation in single-species models was evaluated using colony forming units to quantify surface attached cells and the total number of viable cells in the supernatant and biofilm combined. Bacteria were grown in chambered glass slides in the presence of half-strength BHI with 1% sucrose and 0.4% MUC5B. […] Half-strength BHI was used to provide consistent media conditions throughout experiments in this study. […] All comparisons of viable CFU discussed in the results are determined relative to the control with half-strength BHI and 1% sucrose.
# S. sanguinis [5] = assay: CFU count assay, biofilm formation and total cells, single-species model, S. sanguinis; assay type: cell-based, Streptococcus sanguinis JFP36; settings: for reduction of S. sanguinis biofilm formation: 0.4% polymer, relative to control
# Description: as §2, §3, §4
# S. mutans [6] = test system: S. mutans
# Description: For dual-species models where S. mutans was the primary colonizer, S. mutans (10^7) was inoculated and incubated for 3 hours then S. sanguinis (10^6) was inoculated. For dual-species models where S. sanguinis was the primary colonizer, S. sanguinis (10^8) was inoculated, incubated for 3 hours, then S. mutans (10^7) was inoculated. After the secondary colonizer was inoculated, the dual-species culture was incubated until the time points indicated. For experiments quantifying biofilm formation, at the end of the experiment the supernatant was used to gently wash the biofilm to resuspend unattached cells, then the supernatant was removed. […] For experiments quantifying total cells, at the end of the experiment a sterile pipette tip was used to scrape the biofilm, then the suspension of biofilm and supernatant cells was vortexed with glass beads. […] Statistically significant differences were determined using the Student's t test, with P<0.05 considered significant.
# An in vitro competition model was used to determine the effects of MUC5B on S. mutans and S. sanguinis biofilm formation when co-cultured. […] After 4 hours of co-culture, the supernatant was removed and the number of S. mutans and S. sanguinis in the biofilm were quantified by colony forming units. […] All comparisons of viable CFU discussed in the results are determined relative to the control with half-strength BHI and 1% sucrose. […]
# S. sanguinis [7] = assay: Dual-species competition model, S. mutans primary colonizer: S. sanguinis CFU; assay type: cell-based, Streptococcus sanguinis JFP36; settings: for increase of live S. sanguinis cells (secondary colonizer): S. mutans primary colonizer
# Description: (§5) Agar was incubated for 24-36 hours.
# S. sanguinis [8] = assay: Dual-species competition model, S. sanguinis primary colonizer: S. sanguinis CFU; assay type: cell-based, Streptococcus sanguinis JFP36; settings: 4 hours of co-culture
# Description: as §5
# S. mutans [9] = assay: Dual-species competition model, S. sanguinis primary colonizer: S. mutans CFU; assay type: cell-based, Streptococcus mutans UA159; settings: for increase of S. mutans CFU (secondary colonizer): S. sanguinis primary colonizer
# Description: For dual-species models where S. mutans was the primary colonizer, S. mutans (10^7) was inoculated and incubated for 3 hours then S. sanguinis (10^6) was inoculated. For dual-species models where S. sanguinis was the primary colonizer, S. sanguinis (10^8) was inoculated, incubated for 3 hours, then S. mutans (10^7) was inoculated. After the secondary colonizer was inoculated, the dual-species culture was incubated until the time points indicated. For experiments quantifying biofilm formation, at the end of the experiment the supernatant was used to gently wash the biofilm to resuspend unattached cells, then the supernatant was removed. PBS was added to the wells then the biofilm was scraped using a sterile pipette tip. For experiments quantifying total cells, at the end of the experiment a sterile pipette tip was used to scrape the biofilm, then the suspension of biofilm and supernatant cells was vortexed with glass beads. For both experiments, cell suspensions were diluted then plated on BHI agar containing 10 μg/ml erythromycin to select for S. sanguinis and BHI agar with 1 U/ml bacitracin to select for S. mutans. Agar was incubated for 24-36 hours. […] Statistically significant differences were determined using the Student's t test, with P<0.05 considered significant.
# An in vitro competition model was used to determine the effects of MUC5B on S. mutans and S. sanguinis biofilm formation when co-cultured. In this model, the pioneering colonizer was incubated for 3 hours then the secondary colonizer was inoculated and co-cultured for 4 hours (FIG. 15). The competition model used in this study is based on previous work by Kreth et al, J. Bacteriol. 187:7193-7203 (2005). In addition, sequential inoculation allows us to study competition in models where either S. sanguinis or S. mutans is the dominant species, which is relevant to the natural environment of the oral cavity. After 4 hours of co-culture, the supernatant was removed and the number of S. mutans and S. sanguinis in the biofilm were quantified by colony forming units. This method was used to evaluate biofilm formation when S. mutans is the primary colonizer (FIG. 16A) and when S. sanguinis is the primary colonizer (FIG. 16B). All comparisons of viable CFU discussed in the results are determined relative to the control with half-strength BHI and 1% sucrose.
# To evaluate the effect of MUC5B on the viability of S. mutans and S. sanguinis in a dual-species competition model, the primary colonizer was incubated for 3 hours then inoculated the secondary colonizer and evaluated the total number of viable cells for each species over several hours (FIG. 15). […] Comparisons of viable CFU discussed in the results are determined relative to the control with half-strength BHI and 1% sucrose.
# S. mutans [10] = assay: S. mutans growth curve, mono-species culture (Example 3); assay type: cell-based, Streptococcus mutans UA159
# Description: (§6) The suspensions were vortexed with glass beads to individualize cells, then approximately 10^6 cells were inoculated into wells of a 96-well polystyrene plate. At 2-hour intervals the bottom of the wells were scraped to remove any adherent cells, mixed, and an aliquot was removed, diluted and plated on BHI agar. Agar was incubated and CFU were counted after 24-36 hours.
# (§7) The growth of S. mutans and S. sanguinis in the same medium used for competition experiments was evaluated to determine if the observed increase in viable cells in the presence of MUC5B (FIGS. 17A-C and FIGS. 18A-C) was due to enhanced bacterial growth. […] Growth in PBS containing MUC5B was studied to better understand if S. mutans and S. sanguinis can utilize MUC5B as a nutrient source when other nutrients are limited.
# S. sanguinis [11] = assay: S. sanguinis growth curve, mono-species culture (Example 3); assay type: cell-based, Streptococcus sanguinis JFP36
# Description: as §6, §7
substance,measurement,setting,value
MUC5B: salivary mucin MUC5B purified by FPLC from pooled human submandibular saliva,S. sanguinis survival when S. mutans is the primary colonizer,"S. sanguinis [1]; 0.3% mucins in BHI with 1% sucrose, S. sanguinis inoculated 3 hours after S. mutans, 4 hours incubation, p<0.05",enhances
same,"protective effect, ratio of bacteria slightly skewed",S. sanguinis [1]; ratio slightly skewed (FIG. 8B),visible
same,"effect on S. sanguinis / S. mutans competition, equal ratios of bacteria",S. sanguinis [1]; ratios of bacteria equal (FIG. 8C),small
same,levels of S. mutans attachment and biofilm formation on glass,S. mutans [2],significantly reduces
same,growth of S. mutans (growth curve),S. mutans [3],does not alter the growth
same,number of viable S. mutans cells (bactericidal effect),S. mutans [3]; timepoints up to 24 hours,no bactericidal effects
same,total number of viable S. mutans cells (biofilm and supernatant),S. mutans [4]; 6 hours,decreased slightly
same,reduction of S. mutans biofilm formation,"S. mutans [4]; 6 hours, relative to half-strength BHI with 1% sucrose",94%
same,S. mutans cells in the biofilm as share of total cells,"S. mutans [4]; 6 hours, with MUC5B (control without polymer 66%)",13%
same,total number of S. mutans cells,S. mutans [4]; 9 hours,no significant effect
same,reduction of S. mutans biofilm formation,"S. mutans [4]; 9 hours, relative to control",92%
same,number of viable S. sanguinis in the biofilm and supernatant,S. sanguinis [5]; 6 and 9 hours,did not change
same,reduction of S. sanguinis biofilm formation,S. sanguinis [5]; 6 hours,94%
same,reduction of S. sanguinis biofilm formation,S. sanguinis [5]; 9 hours,86%
same,decrease of S. mutans (primary colonizer) biofilm formation,"S. mutans [6]; 4 hours of co-culture, relative to control",95%
same,effect on total viable S. mutans cells,"S. mutans [6]; S. mutans primary colonizer, 5 hours of co-culture",no effect
same,increase of S. sanguinis (secondary colonizer) biofilm formation,"S. sanguinis [7]; S. mutans pioneering species, 4 hours of co-culture",313%
same,increase of live S. sanguinis cells (secondary colonizer),S. sanguinis [7]; 4 hours of co-culture,1670%
same,increase of live S. sanguinis cells (secondary colonizer),S. sanguinis [7]; 5 hours of co-culture,8700%
same,reduction of S. sanguinis (pioneering species) biofilm formation,S. sanguinis [8]; S. sanguinis pioneering species,68%
same,increase of viable S. sanguinis cells (primary colonizer),S. sanguinis [8]; S. sanguinis primary colonizer,826%
same,effect on S. mutans (secondary colonizer) biofilm formation,"S. mutans [9]; S. sanguinis pioneering species, 4 hours of co-culture",no significant effect
same,increase of S. mutans CFU (secondary colonizer),S. mutans [9]; 4 hours of co-culture,74%
same,increase of S. mutans CFU (secondary colonizer),S. mutans [9]; 5 hours of co-culture,235%
same,increase of S. mutans CFU (secondary colonizer),S. mutans [9]; 6 hours of co-culture,568%
same,effect on S. mutans growth,"S. mutans [10]; 0.4% polymer in half-strength BHI with 1% sucrose, time points up to 10 hours",slightly reduced or had no effect
same,S. mutans growth with MUC5B as nutrient source,S. mutans [10]; PBS with 0.4% MUC5B,neither bacterium can utilize MUC5B to enhance growth
same,effect on S. sanguinis growth,S. sanguinis [11]; 0.4% polymer in half-strength BHI with 1% sucrose,not significantly changed
same,S. sanguinis growth with MUC5B as nutrient source,S. sanguinis [11]; PBS with 0.4% MUC5B,neither bacterium can utilize MUC5B to enhance growth
